Publication PMC6988263 (Parasites & Vectors, 2020)

Target: T1, rHc-HRG-2 (recombinant Hc-HRG-2) (Haemonchus contortus, UniProt A0A7I5E8W1)
T1 construct: vector His tag), expressed in E. coli, Ni-NTA purified
Assay: GSH-CDNB conjugation, absorbance at […] nm
Format: biochemical
Conditions: 1 mM GSH, 0.1 M potassium phosphate pH 6.5, 10 μM protein

T1 sequence (A0A7I5E8W1 entry or part of it): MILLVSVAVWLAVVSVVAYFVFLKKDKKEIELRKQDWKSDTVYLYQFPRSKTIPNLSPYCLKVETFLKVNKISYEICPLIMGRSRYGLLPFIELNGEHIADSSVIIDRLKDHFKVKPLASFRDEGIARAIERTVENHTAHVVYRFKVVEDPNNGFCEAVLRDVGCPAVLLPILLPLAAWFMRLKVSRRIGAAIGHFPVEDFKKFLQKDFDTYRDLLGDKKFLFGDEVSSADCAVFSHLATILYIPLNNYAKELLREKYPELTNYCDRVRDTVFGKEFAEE

## O=[N+]([O-])c1ccc(Cl)c([N+](=O)[O-])c1 [CDNB, 1-chloro-2,4-dinitrobenzene]
  Km: 508 ± 34.1 µM
